The results in this text go back to US20260297060A1, “COMPOUNDS FOR THE DEGRADATION OF MUTANT BRAF” (C4 THERAPEUTICS, INC., priority 2023, published 2026).

Where two headings read alike, the source gives them in different places.

In the assay the target is T1, BRAF V600E (Homo sapiens, UniProt P15056+Q96SW2, V600E).
T1 construct: knock-in of the HiBiT tag to the endogenous BRAF V600E locus; host or cells: A375.10 (A375 clonal line, CRISPR HiBiT knock-in at the endogenous BRAF V600E locus)
As to the kind of experiment: BRAF V600E HiBiT Degradation Assay. It is filed as cell-based. In short, it runs like this: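 Endogenous HiBiT knock-in on BRAF V600E in A375 cells (clone A375.10); 11-point half-log series, top 10 μM, 2, 6 or 24 h at 37° C. Lytic HiBiT luminescence, background-subtracted, normalized to DMSO; 4-parameter fit gives DC50, Emax (residual protein) and IP (inflection point).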

[1] abbreviates: A375.10 cells, BRAF V600E, 2 hours, inflection point, read-out: HiBiT-Degradation A375.10 BRAF 2 hours IP.
Setting [2] is: A375.10 cells, BRAF V600E, 2 hours, read-out: HiBiT-Degradation A375.10 BRAF 2 hours DC50.
[3] abbreviates: A375.10 cells, BRAF V600E, 6 hours, inflection point, read-out: HiBiT-Degradation A375.10 BRAF 6 hours IP.
[4] abbreviates: A375.10 cells, BRAF V600E, 6 hours, read-out: HiBiT-Degradation A375.10 BRAF 6 hours DC50.
[5] abbreviates: A375.10 cells, BRAF V600E, 6 hours, residual protein remaining, read-out: HiBiT-Degradation A375.10 BRAF 6 hours Emax.
Setting [6] is: A375.10 cells, HiBiT, BRAF V600E, 24 hours, read-out: HiBiT-Degradation A375.10 BRAF 24 hours DC50.
Setting [7] is: A375.10 cells, HiBiT, BRAF V600E, 24 hours, read-out: HiBiT-Degradation A375.10 BRAF 24 hours Emax.
[8] abbreviates: A375.10 cells, HiBiT, BRAF V600E, 24 hours, read-out: HiBiT-Degradation A375.10 BRAF 24 hours IP.
The mark [9] stands for this setting: read-out: HiBiT-Degradation A375.10 BRAF 2 hours Emax, A375.10 cells, BRAF V600E, 2 hours, residual protein remaining.
The mark [10] stands for this setting: read-out: HiBiT-Degradation A375.10 BRAF 2 hours DC50, A375.10 cells, BRAF V600E, 2 hours.
Setting [11] is: read-out: HiBiT-Degradation A375.10 BRAF 2 hours IP, A375.10 cells, BRAF V600E, 2 hours, inflection point.

T1 sequence (P15056 whole entry V600E): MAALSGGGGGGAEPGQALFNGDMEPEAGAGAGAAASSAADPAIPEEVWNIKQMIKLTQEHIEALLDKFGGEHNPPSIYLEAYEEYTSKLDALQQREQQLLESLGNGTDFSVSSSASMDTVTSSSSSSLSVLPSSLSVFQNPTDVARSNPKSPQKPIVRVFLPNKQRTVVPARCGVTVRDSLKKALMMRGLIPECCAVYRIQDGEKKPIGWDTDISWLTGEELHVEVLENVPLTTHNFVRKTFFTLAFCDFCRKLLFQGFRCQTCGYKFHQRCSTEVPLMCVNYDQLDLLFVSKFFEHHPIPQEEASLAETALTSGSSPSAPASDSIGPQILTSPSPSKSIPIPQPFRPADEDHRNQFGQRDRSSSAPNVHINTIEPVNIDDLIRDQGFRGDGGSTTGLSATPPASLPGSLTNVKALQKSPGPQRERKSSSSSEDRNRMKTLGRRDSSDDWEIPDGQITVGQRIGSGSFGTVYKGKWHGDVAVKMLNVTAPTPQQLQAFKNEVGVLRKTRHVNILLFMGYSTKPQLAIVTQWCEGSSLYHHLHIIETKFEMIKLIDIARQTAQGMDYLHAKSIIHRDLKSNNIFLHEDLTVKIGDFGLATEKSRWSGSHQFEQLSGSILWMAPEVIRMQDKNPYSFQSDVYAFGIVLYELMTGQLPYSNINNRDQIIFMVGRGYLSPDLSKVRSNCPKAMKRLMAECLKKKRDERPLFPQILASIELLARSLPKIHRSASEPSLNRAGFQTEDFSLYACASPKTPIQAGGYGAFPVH
T1 sequence (Q96SW2 whole entry): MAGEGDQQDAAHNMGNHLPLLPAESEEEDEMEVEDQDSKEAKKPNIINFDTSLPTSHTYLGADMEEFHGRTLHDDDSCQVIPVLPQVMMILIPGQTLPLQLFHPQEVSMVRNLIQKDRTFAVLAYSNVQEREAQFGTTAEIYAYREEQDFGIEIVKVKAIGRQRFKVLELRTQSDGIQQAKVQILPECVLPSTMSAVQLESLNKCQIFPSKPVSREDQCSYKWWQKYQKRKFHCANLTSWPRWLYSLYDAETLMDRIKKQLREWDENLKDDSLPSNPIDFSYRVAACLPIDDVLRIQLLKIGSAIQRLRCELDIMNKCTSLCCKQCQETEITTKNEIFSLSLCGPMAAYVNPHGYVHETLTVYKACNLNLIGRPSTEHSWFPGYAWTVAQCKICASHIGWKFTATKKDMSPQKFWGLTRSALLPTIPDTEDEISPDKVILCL
T1 sequence (Q16531 whole entry partner): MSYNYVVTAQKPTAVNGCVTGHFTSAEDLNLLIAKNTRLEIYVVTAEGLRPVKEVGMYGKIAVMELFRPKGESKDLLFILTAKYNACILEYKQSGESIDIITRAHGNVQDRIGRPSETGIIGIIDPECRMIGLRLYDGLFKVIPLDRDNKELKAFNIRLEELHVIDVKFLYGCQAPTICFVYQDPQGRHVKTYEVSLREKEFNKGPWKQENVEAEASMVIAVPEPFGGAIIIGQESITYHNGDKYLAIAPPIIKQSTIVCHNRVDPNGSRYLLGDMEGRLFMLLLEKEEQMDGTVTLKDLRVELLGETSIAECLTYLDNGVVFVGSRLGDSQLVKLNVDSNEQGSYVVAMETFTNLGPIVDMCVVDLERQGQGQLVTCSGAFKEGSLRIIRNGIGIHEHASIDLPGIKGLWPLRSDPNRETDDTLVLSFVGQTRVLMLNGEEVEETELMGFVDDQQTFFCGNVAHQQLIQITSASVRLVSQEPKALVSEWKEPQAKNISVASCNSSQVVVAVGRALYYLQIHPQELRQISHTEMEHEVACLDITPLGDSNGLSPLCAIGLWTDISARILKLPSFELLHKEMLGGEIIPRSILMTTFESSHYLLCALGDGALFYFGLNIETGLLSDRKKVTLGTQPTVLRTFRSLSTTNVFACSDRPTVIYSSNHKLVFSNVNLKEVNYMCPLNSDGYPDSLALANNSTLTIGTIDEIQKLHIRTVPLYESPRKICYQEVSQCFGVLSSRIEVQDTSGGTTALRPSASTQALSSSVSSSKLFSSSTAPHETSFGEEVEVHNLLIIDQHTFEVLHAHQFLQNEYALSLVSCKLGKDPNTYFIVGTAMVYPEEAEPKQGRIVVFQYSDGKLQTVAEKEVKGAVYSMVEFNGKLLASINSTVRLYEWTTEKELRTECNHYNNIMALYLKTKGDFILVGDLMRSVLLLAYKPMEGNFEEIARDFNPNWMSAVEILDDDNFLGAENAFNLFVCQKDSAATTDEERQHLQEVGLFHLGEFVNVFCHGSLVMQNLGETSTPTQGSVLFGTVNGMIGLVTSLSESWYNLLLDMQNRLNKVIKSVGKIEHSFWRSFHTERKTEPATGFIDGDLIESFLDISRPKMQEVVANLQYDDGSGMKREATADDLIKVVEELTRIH

`CCN(C)S(=O)(=O)Nc1ccc(F)c(Oc2ccc3ncn(C4CC5(CCN(C6CCN(c7cc8c(cc7F)c(N7CCC(=O)NC7=O)nn8C)CC6)CC5)C4)c(=O)c3c2)c1C#N` [Compound 156, 6-[2-cyano-3-[[ethyl(methyl)sulfamoyl]amino]-6-fluoro-phenoxy]-3-[7-[1-[3-(2,4-dioxohexahydropyrimidin-1-yl)-5-fluoro-1-methyl-indazol-6-yl]-4-piperidyl]-7-azaspiro[3.5]nonan-2-yl]-4-oxo-quinazoline]: the DC50 under setting [1] was below 1000 nM; the DC50 under setting [2] was below 1000 nM; the DC50 under setting [3] is below 1000 nM; the DC50 under setting [4] was below 1000 nM; the DC50 under setting [6] is below 1000 nM; the DC50 under setting [8] was below 1000 nM. Besides, the Emax under setting [5] is below 50%, the maximal effect (Emax) under setting [7] was below 50% and the Emax under setting [9] was below 50%.

Take `CO[C@H]1CCN(S(=O)(=O)Nc2ccc(F)c(Oc3ccc4ncn([C@H]5COC6(CCN(C7CC8(C7)CN(c7cc9c(cc7F)c(N7CCC(=O)NC7=O)nn9C)C8)CC6)C5)c(=O)c4c3)c2C#N)C1` [Compound 157, (3S)-N-[2-cyano-3-[3-[(3R)-8-[2-[3-(2,4-dioxohexahydropyrimidin-1-yl)-5-fluoro-1-methyl-indazol-6-yl]-2-azaspiro[3.3]heptan-6-yl]-1-oxa-8-azaspiro[4.5]decan-3-yl]-4-oxo-quinazolin-6-yl]oxy-4-fluoro-phenyl]-3-methoxy-pyrrolidine-1-sulfonamide]: the DC50 by setting is: under setting [1], below 1000 nM; under setting [2], below 1000 nM; under setting [3], below 1000 nM; under setting [4], below 1000 nM; under setting [6], below 1000 nM; under setting [8], below 1000 nM. For the same molecule, the Emax is, setting by setting: under setting [5], below 50%; under setting [7], below 50%; under setting [9], 50 to 90%.

`CCN(C)S(=O)(=O)Nc1ccc(F)c(Oc2ccc3ncc([C@H]4COC5(CCN(C6CC7(C6)CN(c6cc8c(cc6F)c(N6CCC(=O)NC6=O)nn8C)C7)CC5)C4)nc3c2)c1C#N` [Compound 158, (3S)-3-[7-[2-cyano-3-[[ethyl(methyl)sulfamoyl]amino]-6-fluoro-phenoxy]quinoxalin-2-yl]-8-[2-[3-(2,4-dioxohexahydropyrimidin-1-yl)-5-fluoro-1-methyl-indazol-6-yl]-2-azaspiro[3.3]heptan-6-yl]-1-oxa-8-azaspiro[4.5]decane]: the DC50 is, setting by setting: under setting [1], below 1000 nM; under setting [2], 1000 to 10000 nM. For the same molecule, the Emax under setting [9] is 50 to 90%.

Consider `CCN(C)S(=O)(=O)Nc1ccc(F)c(Oc2ccc3ncc(C4CC5(CCN(C6CC7(C6)CN(c6cc8c(cc6F)c(N6CCC(=O)NC6=O)nn8C)C7)CC5)C4)nc3c2)c1C#N` (stereo not drawn) [Compound 177, 7-[2-cyano-3-[[ethyl(methyl)sulfamoyl]amino]-6-fluoro-phenoxy]-2-[7-[2-[3-(2,4-dioxohexahydropyrimidin-1-yl)-5-fluoro-1-methyl-indazol-6-yl]-2-azaspiro[3.3]heptan-6-yl]-7-azaspiro[3.5]nonan-2-yl]quinoxaline], for which the DC50 runs as follows: under setting [1], below 1000 nM; under setting [2], below 1000 nM; under setting [3], below 1000 nM; under setting [4], below 1000 nM; under setting [6], below 1000 nM; under setting [8], below 1000 nM. The Emax reads like this: under setting [5], below 50%; under setting [7], below 50%; under setting [9], below 50%.

`CCN(C)S(=O)(=O)Nc1ccc(F)c(Oc2ccc3ncn(C4CC5(CCN(C6CC7(CCN(c8cc9c(cc8F)c(N8CCC(=O)NC8=O)nn9C)CC7)C6)CC5)C4)c(=O)c3c2)c1C#N` (stereo not drawn) [Compound 198, 6-[2-cyano-3-[[ethyl(methyl)sulfamoyl]amino]-6-fluoro-phenoxy]-3-[7-[7-[3-(2,4-dioxohexahydropyrimidin-1-yl)-5-fluoro-1-methyl-indazol-6-yl]-7-azaspiro[3.5]nonan-2-yl]-7-azaspiro[3.5]nonan-2-yl]-4-oxo-quinazoline]: the DC50 by setting is: under setting [1], below 1000 nM; under setting [2], below 1000 nM; under setting [6], below 1000 nM; under setting [8], below 1000 nM. Besides, the Emax runs as follows: under setting [7], below 50%; under setting [9], below 50%.

`COC1CN(S(=O)(=O)Nc2ccc(F)c(Oc3ccc4ncn([C@H]5COC6(CCN(C7CC8(C7)CN(c7cc9c(cc7F)c(N7CCC(=O)NC7=O)nn9C)C8)CC6)C5)c(=O)c4c3)c2C#N)C1` [Compound 246, N-[2-cyano-3-[3-[(3R)-8-[2-[3-(2,4-dioxohexahydropyrimidin-1-yl)-5-fluoro-1-methyl-indazol-6-yl]-2-azaspiro[3.3]heptan-6-yl]-1-oxa-8-azaspiro[4.5]decan-3-yl]-4-oxo-quinazolin-6-yl]oxy-4-fluoro-phenyl]-3-methoxy-azetidine-1-sulfonamide]: the DC50 reads like this: under setting [10], 1000 to 10000 nM; under setting [11], below 1000 nM. Moreover, the Emax under setting [9] is 50 to 90%.

With `Cn1nc(N2CCC(=O)NC2=O)c2cc(F)c(N3CC4(CC(N5CCC6(CC5)CC(n5cnc7ccc(Oc8c(F)ccc(NS(=O)(=O)C9CCCC9)c8C#N)cc7c5=O)C6)C4)C3)cc21` [Compound 250, N-[2-cyano-3-[3-[7-[2-[3-(2,4-dioxohexahydropyrimidin-1-yl)-5-fluoro-1-methyl-indazol-6-yl]-2-azaspiro[3.3]heptan-6-yl]-7-azaspiro[3.5]nonan-2-yl]-4-oxo-quinazolin-6-yl]oxy-4-fluoro-phenyl]cyclopentanesulfonamide], the DC50 was below 1000 nM under setting [1] and below 1000 nM under setting [2]. Moreover, under setting [9], the Emax is below 50%.

For the molecule `Cn1nc(N2CCC(=O)NC2=O)c2cc(F)c(N3CC4(CC(N5CCC6(CC5)C[C@@H](n5cnc7ccc(Oc8c(F)ccc(NS(=O)(=O)N9CC%10(CCC%10)C9)c8C#N)cc7c5=O)CO6)C4)C3)cc21` [Compound 254, N-[2-cyano-3-[3-[(3R)-8-[2-[3-(2,4-dioxohexahydropyrimidin-1-yl)-5-fluoro-1-methyl-indazol-6-yl]-2-azaspiro[3.3]heptan-6-yl]-1-oxa-8-azaspiro[4.5]decan-3-yl]-4-oxo-quinazolin-6-yl]oxy-4-fluoro-phenyl]-2-azaspiro[3.3]heptane-2-sulfonamide], the DC50 runs as follows: under setting [1], below 1000 nM; under setting [2], below 1000 nM. For the same molecule, under setting [9], the Emax was 50 to 90%.

For the molecule `Cn1nc(N2CCC(=O)NC2=O)c2cc(F)c(N3CC4(CC(N5CCC6(CC5)CC(n5cnc7ccc(Oc8c(F)ccc(NS(=O)(=O)C9CCC9)c8C#N)cc7c5=O)C6)C4)C3)cc21` [Compound 259, N-[2-cyano-3-[3-[7-[2-[3-(2,4-dioxohexahydropyrimidin-1-yl)-5-fluoro-1-methyl-indazol-6-yl]-2-azaspiro[3.3]heptan-6-yl]-7-azaspiro[3.5]nonan-2-yl]-4-oxo-quinazolin-6-yl]oxy-4-fluoro-phenyl]cyclobutanesulfonamide], the DC50 is, setting by setting: under setting [10], below 1000 nM; under setting [11], below 1000 nM. In addition, the Emax under setting [9] was below 50%.

With `Cn1nc(N2CCC(=O)NC2=O)c2cc(F)c(N3CC4(CC(N5CCC6(CC5)CC(n5cnc7ccc(Oc8c(F)ccc(NS(=O)(=O)C9CC9)c8C#N)cc7c5=O)C6)C4)C3)cc21` [Compound 260, N-[2-cyano-3-[3-[7-[2-[3-(2,4-dioxohexahydropyrimidin-1-yl)-5-fluoro-1-methyl-indazol-6-yl]-2-azaspiro[3.3]heptan-6-yl]-7-azaspiro[3.5]nonan-2-yl]-4-oxo-quinazolin-6-yl]oxy-4-fluoro-phenyl]cyclopropanesulfonamide], the DC50 reads like this: under setting [10], below 1000 nM; under setting [11], below 1000 nM. Further, under setting [9], the Emax is below 50%.
